Patent EP1129187B1, “NEW FAMILY OF MAMMALIAN POTASSIUM CHANNELS, THEIR CLONING AND THEIR USE, ESPECIALLY FOR THE SCREENING OF DRUGS” (CENTRE NATIONAL DE LA RECHERCHE SCIENTIFIQUE (CNRS), priority 1998, dated 2000)

Key:
Assay type in all cases: cell-based
[1] = biological target: human TASK1 K+ channel, SEQ ID NO: 4 (Homo sapiens, UniProt O14649); assay: TASK1 currents elicited by voltage pulses to +50 mV, two-electrode voltage clamp in Xenopus oocytes; conditions: 40 nM, activation of protein kinase C
Chain of human TASK1 K+ channel, SEQ ID NO: 4 (O14649 whole entry, the tested form may be a part): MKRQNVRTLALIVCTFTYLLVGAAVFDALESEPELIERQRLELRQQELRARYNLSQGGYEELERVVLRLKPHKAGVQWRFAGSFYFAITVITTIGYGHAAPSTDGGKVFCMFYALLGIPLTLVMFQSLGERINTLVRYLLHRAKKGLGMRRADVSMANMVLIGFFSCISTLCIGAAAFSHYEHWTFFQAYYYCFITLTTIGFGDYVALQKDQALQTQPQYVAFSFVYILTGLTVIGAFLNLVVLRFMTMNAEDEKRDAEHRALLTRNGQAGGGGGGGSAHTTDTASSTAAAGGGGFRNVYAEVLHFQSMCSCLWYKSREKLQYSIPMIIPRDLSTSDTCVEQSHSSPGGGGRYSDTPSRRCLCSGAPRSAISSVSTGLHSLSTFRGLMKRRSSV
Procedure: For functional studies, TASK1 cRNAs were injected into Xenopus oocytes. This was accomplished by subcloning a 2480 bp SmaI/XhoI fragment from pBS-hT ASK containing 14 bp of 5' UTR, the coding sequence and the entire 3' UTR into the pEXO vector (Lingueglia et al., 1993) to give pEXO-TASK1. Capped-cRNAs were synthesised in vitro from the linearized plasmid by using the T7 RNA polymerase (Stratagene). Xenopus laevis were purchased from CRBM (Montpellier, France). Preparation and cRNA injection of oocytes has been described elsewhere (Guillemare et al., 1992). Oocytes were used for electrophysiological studies 2 to 4 days following injection (20 ng/oocyte). In a 0.3 ml perfusion chamber, a single oocyte was impaled with two standard microelectrodes (1-2.5 Mn resistance) filled with 3 M KCI and maintained under voltage clamp by using a Dagan TEV 200 amplifier, in standard ND96 solution (96 mM NaC1. 2 mM KCI, 1.8 mM CaCI2, 2 mM MgCl2, 5 mM HEPES, pH 7.4 with NaOH). In some experiments, NaCl was substituted with TMA Cl (Tetra Methyl Ammonium Chloride). Stimulation of the preparation, data acquisition, and analysis were performed using pClamp software (Axon instruments, USA). Drugs were applied externally by addition to the superfusate (flow rate: 3 ml/min) or intracellularly injected by using a pressure microinjector (Inject+Matic, Switzedand). All experiments were performed at room temperature (21-22 °C).
Figure 12A presents the I-V relationships of the current in K^+-rich solutions ranging from 2 mM to 98 mM. […] The theoretical I-V relationships in various [K^+]out calculated according to the Goldman-Hodgkin-Katz current equation are shown in Figure 12D. […] The effect of various pharmacological agents on currents elicited by voltage pulses to +50 mV has been studied in TASK1-expressing oocytes.

[2] = test system: human TWIK-1 K+ channel, mutation of the threonine 161 into alanine; assay: Currents of mutated TWIK-1 channel in Xenopus oocytes; conditions: mutant Thr161 to Ala
Procedure: The TWIK-1 coding sequence was amplified using a low-error rate DNA polymerase (Pwo DNA pal, Boehringer) and subcloned in the plasmid pEXO so as to yield pEXO-TWIK-1. Mutations were performed using the whole plasmid pEXO-TWIK-1 with a highly reliable PCR extension kit (Boehringer) and two adjacent primers. One of these introduced a punctiform mutation in the IINIK-1 coding sequence, changing the 161 Thr codon into a codon for alanine. The product of the PCR was linearized by the enzyme BamHI and the cRNA were synthesized using a T7 RNA polymerase (Stratagene). Preparation of the X. larvis oocytes and cRNA injection were carried out in accordance with the literature (Guillemare, E. et al., 1992, Biochemistry. 31, 1246312468,
(§1) Phosphorylation or dephosphorylation of specific amino acid residues is an important mechanism of regulation of the ionic channels (Levitan, I. B., 1994, Annul Rev. Physiol., 56, 193-212).

[3] = biological target: T1, human TASK-2 K+ channel, SEQ ID NO: 28 (Homo sapiens, UniProt O95279); assay: TASK-2 currents elicited by voltage pulses to +50 mV, whole cell recording in transfected COS cells; conditions: 70 nM, activation of PKC
T1 construct: expressed in transfected cells; host or cells: COS cells transiently transfected with pIREScd8-TASK-2 (DEAE-dextran)
T1 sequence (O95279 1-499): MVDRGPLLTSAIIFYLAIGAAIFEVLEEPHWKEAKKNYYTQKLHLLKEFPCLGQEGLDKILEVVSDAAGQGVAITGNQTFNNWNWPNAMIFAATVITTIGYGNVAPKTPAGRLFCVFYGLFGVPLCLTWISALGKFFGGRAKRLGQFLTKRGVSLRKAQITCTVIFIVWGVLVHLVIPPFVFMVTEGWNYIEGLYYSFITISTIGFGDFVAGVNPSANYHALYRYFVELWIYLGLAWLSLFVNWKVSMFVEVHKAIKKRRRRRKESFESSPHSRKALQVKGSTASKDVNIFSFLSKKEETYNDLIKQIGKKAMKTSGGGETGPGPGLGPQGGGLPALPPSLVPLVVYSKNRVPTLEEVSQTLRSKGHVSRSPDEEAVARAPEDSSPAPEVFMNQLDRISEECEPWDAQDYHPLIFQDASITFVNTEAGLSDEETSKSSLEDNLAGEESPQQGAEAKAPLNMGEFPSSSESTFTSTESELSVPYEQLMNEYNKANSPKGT
Procedure: For patch clamp analyses, a NotI/EcoRI fragment of 3.2 kb was excised from pBS-TASK 2 and subcloned into the pIRES-CD8 vectorto givepIREScdB-TASK-2. ThepIRES-CD8 vector was obtained by replacing the neo^R gene in the original vector pIRESneo (Clontech) by the coding sequence of the T type lymphocyte's surface marker CD8. COS cells were seeded at a density of 20,000 cells per 35 mm dishes 24 h prior to transfection. Cells were then transiently transfected by the classical DEAE-dextian method with 1 µg of prREScdB-TASK-2 plasmid per 35 mm dish. Transiently-transfected cells were visualized 48 h after transfection using the anti-CD8 antibody coated beads method (24). For whole cell recordings, the internal solution contained 150 mM KCI, 3 mM MgCl2, 5 mM EGTA, and 10 mM HEPES at pH 7.2 with KOH, and he external solution 150 mM NaCl, 5 mM KCI, 3 mM MgCl2 1 mM CaCl2, 10 mM HEPES at pH 7.4 with NaOH.
The effects of various pharmacological agents on currents elicited by voltage pulses to +50 mV have been studied in TASK-2-exprcssing. COS cells.

[4] = biological target: T2, human TWIK-1 K+ channel, SEQ ID NO: 2 (Homo sapiens, UniProt O00180); assay: TWIK-1 K+ currents, two-electrode voltage clamp in Xenopus oocytes injected with TWIK-1 cRNA; conditions: 30 nM, activation of protein kinase C
T2 construct: expressed in transfected cells; host or cells: Xenopus laevis oocytes injected with cRNA transcribed from pEXO-TWIK-1
T2 sequence (O00180 1-336): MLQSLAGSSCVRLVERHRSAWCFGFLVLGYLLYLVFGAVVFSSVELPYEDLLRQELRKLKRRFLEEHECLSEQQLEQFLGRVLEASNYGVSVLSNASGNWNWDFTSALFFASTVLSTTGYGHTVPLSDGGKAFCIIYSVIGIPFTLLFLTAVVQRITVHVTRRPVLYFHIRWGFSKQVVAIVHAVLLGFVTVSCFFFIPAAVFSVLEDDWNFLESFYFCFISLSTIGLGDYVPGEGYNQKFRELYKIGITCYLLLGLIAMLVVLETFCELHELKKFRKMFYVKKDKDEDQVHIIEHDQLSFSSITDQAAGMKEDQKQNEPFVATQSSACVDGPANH
Procedure: For the functional study, the coding sequence of TWIK-1 was inserted between the noncoding sequences 5' and 3' of Xenopus globin in the vector pEXO (Lingueglia, E. et al., 1993, J. Biol. Chem., 269, 13736-13739). A complementary RNA (cRNA) was transcribed of this construction and injected in the oocytes of X laevis. In a 0.3ml perfusion chamber, a single oocyte was impaled on two standard glass microelectrodes (0.5 - 2.0 MW) charged with 3 M KCI and maintained under voltage-clamp with a Dagan TEV200 amplifier. The bath solution contained 98 mM KCl,1.8 raM CaCl2 […] and 5 mM HEPES at pH 7.4 with KOH. Stimulation of the preparation, data acquisition and analyses were carried out with the pClamp program (Axon Instruments) USA3.
Intracellular acidification of the oocytes was produced using two methods: • superfusion with a solution enriched in CO2 which produces acidification by a mechanism involving the bicarbonate transport system (Guillemare, E. et al., 1995, Mol. Pharmacol., 47, 588-594); • treatment with dinitrophenol (DNP), which is a metabolic inhibitor that decouples the H+ gradient in mitochondria and induces internal acidity (Pedersen, P. L. and Carafoli, E., 1997, Trends Biol. Sci., 12, 146-189).
as §1

CCCCCCCCCCCCCC(=O)O[C@@H]1[C@@H](C)[C@@]2(O)[C@@H](C=C(CO)C[C@]3(O)C(=O)C(C)=C[C@@H]23)[C@@H]2C(C)(C)[C@]12OC(C)=O [PMA, phorbol-12 myristate acetate]
sensitivity of TASK1 currents [1]: insensitive | activation by PMA [2]: conserves the capacity to be activated | sensitivity of TASK-2 currents [3]: insensitive | effect on TWIK-1 currents [4]: increases
